# Measured values as given in US20230151025A1, “SUBSTITUTED THIAZOLOPYRIDINES, SALTS THEREOF AND THEIR USE AS HERBICIDALLY ACTIVE SUBSTANCES” (Bayer Aktiengesellschaft, priority 2020, published 2023).
# Experiments:
# Type in all cases: in vivo
# [1] = system: Alopecurus myosuroides (ALOMY); experiment: Herbicidal post-emergence action (B), 1280 g/ha; details: rated visually after about 3 weeks vs untreated controls
# Outline: (§1)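 Post-emergence greenhouse test: weeds in sandy loam treated at the one-leaf stage, 2 to 3 weeks after sowing, with WP or EC formulations plus 0.5% additive at 600 l/ha water. Visual activity versus untreated controls after about 3 weeks (100% = dead, 0% = like control).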
# [2] = system: Amaranthus retroflexus (AMARE); experiment: Herbicidal post-emergence action (B), 1280 g/ha; details: rated visually after about 3 weeks vs untreated controls
# Outline: as §1
# [3] = system: Digitaria sanguinalis (DIGSA); experiment: Herbicidal post-emergence action (B), 1280 g/ha; details: rated visually after about 3 weeks vs untreated controls
# Outline: as §1
# [4] = system: Echinochloa crus-galli (ECHCG); experiment: Herbicidal post-emergence action (B), 1280 g/ha; details: rated visually after about 3 weeks vs untreated controls
# Outline: as §1
# [5] = system: Kochia scoparia (KCHSC; Bassia scoparia); experiment: Herbicidal post-emergence action (B), 1280 g/ha
# Outline: as §1
# Poa annua (POAAN) = experiment: Herbicidal post-emergence action (B), 1280 g/ha; details: rated visually after about 3 weeks vs untreated controls
# Outline: as §1
# Setaria viridis (SETVI) [6] = experiment: Herbicidal post-emergence action (B), 1280 g/ha; details: rated visually after about 3 weeks vs untreated controls
# Outline: as §1
# Stellaria media (STEME) = experiment: Herbicidal post-emergence action (B), 1280 g/ha
# Outline: as §1
# Veronica persica (VERPE) = experiment: Herbicidal post-emergence action (B), 1280 g/ha
# Outline: as §1
# [7] = system: Polygonum convolvulus (POLCO); experiment: Herbicidal pre-emergence action (C), 320 g/ha; details: ca. 3 weeks
# Outline: (§2)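 Seeds sown in sandy loam and covered with soil; compounds formulated as WP or EC were sprayed onto the covering soil as aqueous suspension/emulsion with 0.5% additive at 600 l water/ha. Pots kept in greenhouse; damage graded visually after ca. 3 weeks versus untreated controls (0% = as control, 100% = plants dead).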
# Viola tricolor (VIOTR) = experiment: Herbicidal pre-emergence action (C), 320 g/ha; details: ca. 3 weeks
# Outline: as §2
# Setaria viridis (SETVI) [8] = experiment: Herbicidal post-emergence action (D), 320 g/ha; details: ca. 3 weeks
# Outline: (§3)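 Post-emergence greenhouse spray of WP or EC formulations plus 0.5% additive at 600 l water/ha onto single-leaf-stage plants, 2–3 weeks after sowing in sandy loam. About 3 weeks later, effect was rated visually against untreated controls as % herbicidal effect, where 0% means like control and 100% means plants dead.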
# [9] = system: Abutilon theophrasti (ABUTH); experiment: Herbicidal post-emergence action (B), 1280 g/ha; details: rated visually after about 3 weeks vs untreated controls
# Outline: as §1
# Lolium rigidum (LOLRI) = experiment: Herbicidal post-emergence action (B), 1280 g/ha; details: one-leaf stage, rated after about 3 weeks vs untreated controls, 100% activity = the plants have died, 0% = like control plants
# Outline: as §1
# [10] = system: Abutilon theophrasti (ABUTH); experiment: Herbicidal pre-emergence action (C), 320 g/ha; details: ca. 3 weeks
# Outline: as §2
# [11] = system: Matricaria inodora (MATIN); experiment: Herbicidal pre-emergence action (C), 320 g/ha; details: ca. 3 weeks
# Outline: as §2
# [12] = system: Abutilon theophrasti (ABUTH); experiment: Herbicidal post-emergence action (D), 320 g/ha; details: ca. 3 weeks
# Outline: as §3
# [13] = system: Digitaria sanguinalis (DIGSA); experiment: Herbicidal post-emergence action (D), 320 g/ha; details: ca. 3 weeks
# Source text: Seeds of mono- and dicotyledonous weed plants and crop plants were sown, in plastic or organic planting pots, in sandy loam, covered with soil and grown in a greenhouse under controlled growth conditions. 2 to 3 weeks after sowing, the test plants were sprayed in the single-leaf stage. The compounds according to the invention, formulated in form of wettable powders (WP) or as emulsifiable concentrates (EC), were sprayed onto the green plant parts as aqueous suspension or emulsion, with the addition of 0.5% of an additive, at an application rate of 600 l of water/ha (converted). The test plants were placed in the greenhouse for ca. 3 weeks under optimum growth conditions, and then the effect of the preparations was assessed visually in comparison with untreated controls (herbicidal effect in percent (%): 100% effect=plants have died off, 0% effect=as control plants).
# Tables D1 to D13 below show the effects of selected compounds of the general formula (I) according to table 1 on various harmful plants and an application rate corresponding to 320 g/ha obtained by the experimental procedure mentioned above.
# [14] = system: Matricaria inodora (MATIN); experiment: Herbicidal post-emergence action (B), 1280 g/ha; details: rated visually after about 3 weeks vs untreated controls
# Outline: as §1
# Avena fatua = experiment: Herbicidal pre-emergence action (C), 320 g/ha; details: ca. 3 weeks
# Outline: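 Weed and crop seeds sown in sandy loam; WP or EC formulations applied pre-emergence to the soil surface as aqueous suspension/emulsion with 0.5% additive at 600 l water/ha. Greenhouse-grown under optimum conditions; damage visually scored after ca. 3 weeks versus untreated controls (0% = as control, 100% = plants dead).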
SMILES,herbicidal activity ALOMY [1] [%],herbicidal activity AMARE [2] [%],herbicidal activity DIGSA [3] [%],herbicidal activity ECHCG [4] [%],herbicidal effect KCHSC [5] [%],herbicidal activity POAAN (Poa annua (POAAN)) [%],herbicidal activity SETVI (Setaria viridis (SETVI) [6]) [%],herbicidal effect STEME (Stellaria media (STEME)) [%],herbicidal effect VERPE (Veronica persica (VERPE)) [%],herbicidal effect POLCO [7] [%],herbicidal effect VIOTR (Viola tricolor (VIOTR)) [%],herbicidal effect SETVI (Setaria viridis (SETVI) [8]) [%],herbicidal activity ABUTH [9] [%],"LOLRI, activity rated visually (%) (Lolium rigidum (LOLRI))",herbicidal effect ABUTH [10] [%],herbicidal effect MATIN [11] [%],herbicidal effect ABUTH [12] [%],herbicidal effect DIGSA [13] [%],herbicidal activity MATIN [14] [%],herbicidal effect AVEFA (Avena fatua) [%]
"Cc1cc2scnc2nc1-c1cccc(F)c1 [Example I-003, 5-(3-fluorophenyl)-6-methyl-thiazolo[4,5-b]pyridine]",100,100,90,100,90,100,90,100,90,80,80,80,,,,,,,,
CCc1cc2scnc2nc1-c1ccccc1F [Example I-023],100,100,100,100,90,100,100,100,90,80,80,80,100,100,80,90,80,80,,
CCc1cc2scnc2nc1-c1cccc(F)c1 [Example I-029],100,100,100,100,100,100,100,100,90,,,,100,,,,,,,
CCc1cc2scnc2nc1-c1ccc(F)cc1F [Example I-030],90,100,100,100,100,100,90,90,90,80,,,100,90,,,,,,
Fc1ccccc1-c1nc2ncsc2cc1C1CC1 [Example I-102],100,100,100,100,100,90,100,100,100,,80,80,,,,,,,90,
Cc1cc2scnc2nc1-c1ccc(F)cc1F [Example I-122],100,100,100,90,100,100,90,100,100,,,,90,,,,,,,100
COc1ccccc1-c1nc2ncsc2cc1C [Example I-124],100,90,100,90,100,100,90,100,100,,90,,100,,,80,,,,
Cc1cc2scnc2nc1-c1sccc1Cl [Example I-137],100,100,100,100,90,100,100,100,100,,90,,90,90,,90,,90,90,80
Cc1cc2scnc2nc1-c1sccc1C [Example I-143],100,100,,100,100,100,90,100,100,,,80,100,100,80,90,,,100,90
Fc1ccccc1-c1nc2ncsc2cc1I [Example I-188],,100,,90,90,90,90,90,,80,,100,,90,80,,,,90,100
